Tests used:
[1] = target: Platelet-derived growth factor receptor beta (Homo sapiens) (UniProt P09619); details: Compound concentration 1000.0 nM
[2] = target: Serine/threonine-protein kinase NIM1 (Homo sapiens) (UniProt Q8IY84); details: Compound concentration 1000.0 nM
[3] = target: Interleukin-1 receptor-associated kinase 4 (Homo sapiens) (UniProt Q9NWZ3); details: Compound concentration 1000.0 nM
[4] = target: Phosphatidylinositol 4-phosphate 5-kinase type-1 alpha (Homo sapiens) (UniProt Q99755); details: Compound concentration 1000.0 nM
[5] = target: Serine/threonine-protein kinase 38-like (Homo sapiens) (UniProt Q9Y2H1); details: Compound concentration 1000.0 nM
[6] = target: Mitogen-activated protein kinase 13 (Homo sapiens) (UniProt O15264); details: Compound concentration 1000.0 nM
[7] = test system: Epidermal growth factor receptor (Homo sapiens), P00533 [L861Q]; details: Compound concentration 1000.0 nM
[8] = test system: Mast/stem cell growth factor receptor Kit (Homo sapiens), P10721 [V559D,T670I]; details: Compound concentration 1000.0 nM
[9] = target: Tyrosine-protein kinase Fes/Fps (Homo sapiens) (UniProt P07332); details: Compound concentration 1000.0 nM
[10] = target: Interleukin-1 receptor-associated kinase 3 (Homo sapiens) (UniProt Q9Y616); details: Compound concentration 1000.0 nM
[11] = target: Ribosomal protein S6 kinase alpha-1 (Homo sapiens) (UniProt Q15418); details: Compound concentration 1000.0 nM
[12] = target: Ribosomal protein S6 kinase alpha-5 (Homo sapiens) (UniProt O75582); details: Compound concentration 1000.0 nM
[13] = target: Cyclin-dependent kinase 4 (Homo sapiens) (UniProt P11802); details: Compound concentration 1000.0 nM
[14] = target: Casein kinase I isoform alpha (Homo sapiens) (UniProt P48729); details: Compound concentration 1000.0 nM
[15] = target: Mitogen-activated protein kinase kinase kinase 9 (Homo sapiens) (UniProt P80192); details: Compound concentration 1000.0 nM
[16] = test system: Phosphatidylinositol 4,5-bisphosphate 3-kinase catalytic subunit alpha isoform (Homo sapiens), P42336 [H1047L]; details: Compound concentration 1000.0 nM
[17] = target: Mitogen-activated protein kinase kinase kinase 1 (Homo sapiens) (UniProt Q13233); details: Compound concentration 1000.0 nM
[18] = target: Serine/threonine-protein kinase 3 (Homo sapiens) (UniProt Q13188); details: Compound concentration 1000.0 nM
[19] = target: Sigma non-opioid intracellular receptor 1 (Homo sapiens, UniProt Q99720); details: Compound concentration 10.0 uM
[20] = target: MAP/microtubule affinity-regulating kinase 4 (Homo sapiens) (UniProt Q96L34); details: Compound concentration 1000.0 nM
[21] = target: Tyrosine-protein kinase receptor TYRO3 (Homo sapiens) (UniProt Q06418); details: Compound concentration 1000.0 nM
[22] = target: Microtubule-associated serine/threonine-protein kinase 1 (Homo sapiens) (UniProt Q9Y2H9); details: Compound concentration 1000.0 nM
[23] = target: Mitotic checkpoint serine/threonine-protein kinase BUB1 (Homo sapiens) (UniProt O43683); details: Compound concentration 1000.0 nM
[24] = target: cAMP-dependent protein kinase catalytic subunit PRKX (Homo sapiens) (UniProt P51817); details: Compound concentration 1000.0 nM
[25] = target: Mitogen-activated protein kinase kinase kinase 5 (Homo sapiens) (UniProt Q99683); details: Compound concentration 1000.0 nM
[26] = test system: Tyrosine-protein kinase ABL1 (Homo sapiens), P00519 [F317I]; details: Compound concentration 1000.0 nM
[27] = target: Cyclin-dependent kinase 15 (Homo sapiens) (UniProt Q96Q40); details: Compound concentration 1000.0 nM
[28] = target: Dual specificity mitogen-activated protein kinase kinase 1 (Homo sapiens) (UniProt Q02750); details: Compound concentration 1000.0 nM
[29] = target: Inhibitor of nuclear factor kappa-B kinase subunit alpha (Homo sapiens) (UniProt O15111); details: Compound concentration 1000.0 nM
[30] = target: Serine/threonine-protein kinase Chk2 (Homo sapiens) (UniProt O96017); details: Compound concentration 1000.0 nM
[31] = target: Tyrosine-protein kinase Lck (Homo sapiens) (UniProt P06239); details: Compound concentration 1000.0 nM
[32] = target: NUAK family SNF1-like kinase 2 (Homo sapiens) (UniProt Q9H093); details: Compound concentration 1000.0 nM
[33] = target: Mitogen-activated protein kinase 9 (Homo sapiens) (UniProt P45984); details: Compound concentration 1000.0 nM
[34] = target: Calcium/calmodulin-dependent protein kinase type 1 (Homo sapiens) (UniProt Q14012); details: Compound concentration 1000.0 nM
[35] = test system: Mast/stem cell growth factor receptor Kit (Homo sapiens), P10721 [V559D,V654A]; details: Compound concentration 1000.0 nM
[36] = target: Dual specificity tyrosine-phosphorylation-regulated kinase 1B (Homo sapiens) (UniProt Q9Y463); details: Compound concentration 1000.0 nM
[37] = target: 5-hydroxytryptamine receptor 6 (Homo sapiens) (UniProt P50406); details: Compound concentration 10.0 uM
[38] = target: Ribosomal protein S6 kinase alpha-5 (Homo sapiens) (UniProt O75582); details: Compound concentration 1000.0 nM; remark: listed apart in the source
[39] = target: Cyclin-dependent kinase-like 2 (Homo sapiens) (UniProt Q92772); details: Compound concentration 1000.0 nM
[40] = target: Serine/threonine-protein kinase N1 (Homo sapiens) (UniProt Q16512); details: Compound concentration 1000.0 nM
[41] = target: Dual specificity mitogen-activated protein kinase kinase 7 (Homo sapiens) (UniProt O14733); details: Compound concentration 1000.0 nM
[42] = target: Phosphatidylinositol 4-phosphate 3-kinase C2 domain-containing subunit beta (Homo sapiens) (UniProt O00750); details: Compound concentration 1000.0 nM
[43] = target: Vascular endothelial growth factor receptor 1 (Homo sapiens) (UniProt P17948); details: Compound concentration 1000.0 nM
[44] = target: Serine/threonine-protein kinase PAK 6 (Homo sapiens) (UniProt Q9NQU5); details: Compound concentration 1000.0 nM
Serine/threonine-protein kinase PAK 6 (Homo sapiens), sequence (Q9NQU5 whole entry, looked up): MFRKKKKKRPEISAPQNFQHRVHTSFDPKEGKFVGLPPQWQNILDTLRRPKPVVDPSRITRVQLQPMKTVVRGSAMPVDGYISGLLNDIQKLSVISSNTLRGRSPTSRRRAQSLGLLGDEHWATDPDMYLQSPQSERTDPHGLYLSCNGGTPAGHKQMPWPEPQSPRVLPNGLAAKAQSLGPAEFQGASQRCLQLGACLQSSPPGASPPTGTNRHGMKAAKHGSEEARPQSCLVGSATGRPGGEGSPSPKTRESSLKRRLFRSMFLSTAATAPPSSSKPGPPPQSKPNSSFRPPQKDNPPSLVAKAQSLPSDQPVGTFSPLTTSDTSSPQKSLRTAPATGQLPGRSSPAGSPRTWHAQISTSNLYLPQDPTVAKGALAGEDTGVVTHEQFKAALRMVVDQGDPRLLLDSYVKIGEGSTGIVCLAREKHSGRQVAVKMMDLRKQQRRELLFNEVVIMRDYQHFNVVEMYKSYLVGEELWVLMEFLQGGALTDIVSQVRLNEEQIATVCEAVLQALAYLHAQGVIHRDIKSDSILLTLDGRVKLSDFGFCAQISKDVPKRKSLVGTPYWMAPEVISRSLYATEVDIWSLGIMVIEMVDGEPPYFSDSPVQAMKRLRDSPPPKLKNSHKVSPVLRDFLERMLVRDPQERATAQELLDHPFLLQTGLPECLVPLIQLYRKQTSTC

Ribosomal protein S6 kinase alpha-5 (Homo sapiens), sequence (O75582 whole entry, looked up): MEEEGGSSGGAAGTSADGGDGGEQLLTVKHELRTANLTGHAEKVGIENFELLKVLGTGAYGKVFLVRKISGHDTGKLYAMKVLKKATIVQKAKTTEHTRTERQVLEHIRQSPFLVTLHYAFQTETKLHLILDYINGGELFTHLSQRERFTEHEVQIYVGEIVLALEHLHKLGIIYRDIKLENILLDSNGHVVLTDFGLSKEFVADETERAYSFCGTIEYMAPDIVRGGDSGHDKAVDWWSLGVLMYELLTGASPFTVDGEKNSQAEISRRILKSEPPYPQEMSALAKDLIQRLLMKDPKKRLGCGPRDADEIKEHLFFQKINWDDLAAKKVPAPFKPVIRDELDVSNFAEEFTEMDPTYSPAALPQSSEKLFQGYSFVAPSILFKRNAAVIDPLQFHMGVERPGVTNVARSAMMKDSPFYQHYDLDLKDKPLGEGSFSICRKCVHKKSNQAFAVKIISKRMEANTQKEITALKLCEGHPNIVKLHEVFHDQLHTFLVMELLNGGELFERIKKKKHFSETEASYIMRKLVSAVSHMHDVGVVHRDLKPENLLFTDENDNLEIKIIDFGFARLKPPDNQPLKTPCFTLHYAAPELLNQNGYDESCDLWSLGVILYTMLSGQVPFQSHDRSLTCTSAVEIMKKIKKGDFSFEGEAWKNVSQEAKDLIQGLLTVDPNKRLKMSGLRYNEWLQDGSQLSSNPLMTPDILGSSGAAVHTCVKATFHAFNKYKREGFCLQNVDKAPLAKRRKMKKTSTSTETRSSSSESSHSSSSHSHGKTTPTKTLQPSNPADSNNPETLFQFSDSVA
Serine/threonine-protein kinase 38-like (Homo sapiens), sequence (Q9Y2H1 2-464 limits assumed): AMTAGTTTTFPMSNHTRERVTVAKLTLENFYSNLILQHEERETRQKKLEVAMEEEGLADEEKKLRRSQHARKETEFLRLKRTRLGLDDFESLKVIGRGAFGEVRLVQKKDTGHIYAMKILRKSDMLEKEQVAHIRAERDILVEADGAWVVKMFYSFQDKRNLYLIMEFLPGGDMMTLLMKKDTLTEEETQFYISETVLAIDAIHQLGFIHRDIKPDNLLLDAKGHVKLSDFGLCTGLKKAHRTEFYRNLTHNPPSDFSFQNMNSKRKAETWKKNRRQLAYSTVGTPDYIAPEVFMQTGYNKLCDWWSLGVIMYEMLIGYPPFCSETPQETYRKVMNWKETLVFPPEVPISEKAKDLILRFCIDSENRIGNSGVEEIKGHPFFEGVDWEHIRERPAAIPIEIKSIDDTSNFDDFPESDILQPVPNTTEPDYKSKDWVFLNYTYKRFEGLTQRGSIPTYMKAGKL
5-hydroxytryptamine receptor 6 (Homo sapiens), sequence (P50406 whole entry): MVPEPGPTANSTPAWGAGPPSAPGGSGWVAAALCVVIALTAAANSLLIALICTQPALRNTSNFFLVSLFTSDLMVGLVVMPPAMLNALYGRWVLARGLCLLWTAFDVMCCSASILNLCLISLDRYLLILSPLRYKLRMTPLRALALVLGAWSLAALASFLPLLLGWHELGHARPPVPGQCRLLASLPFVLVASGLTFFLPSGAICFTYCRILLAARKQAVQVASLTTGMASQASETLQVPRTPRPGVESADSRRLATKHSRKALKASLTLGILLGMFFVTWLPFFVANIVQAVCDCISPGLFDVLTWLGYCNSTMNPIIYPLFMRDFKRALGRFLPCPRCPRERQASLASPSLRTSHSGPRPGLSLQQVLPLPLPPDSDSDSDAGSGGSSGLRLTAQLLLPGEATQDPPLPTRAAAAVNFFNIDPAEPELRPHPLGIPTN
Dual specificity mitogen-activated protein kinase kinase 7 (Homo sapiens), sequence (O14733 whole entry, the tested form may be a part): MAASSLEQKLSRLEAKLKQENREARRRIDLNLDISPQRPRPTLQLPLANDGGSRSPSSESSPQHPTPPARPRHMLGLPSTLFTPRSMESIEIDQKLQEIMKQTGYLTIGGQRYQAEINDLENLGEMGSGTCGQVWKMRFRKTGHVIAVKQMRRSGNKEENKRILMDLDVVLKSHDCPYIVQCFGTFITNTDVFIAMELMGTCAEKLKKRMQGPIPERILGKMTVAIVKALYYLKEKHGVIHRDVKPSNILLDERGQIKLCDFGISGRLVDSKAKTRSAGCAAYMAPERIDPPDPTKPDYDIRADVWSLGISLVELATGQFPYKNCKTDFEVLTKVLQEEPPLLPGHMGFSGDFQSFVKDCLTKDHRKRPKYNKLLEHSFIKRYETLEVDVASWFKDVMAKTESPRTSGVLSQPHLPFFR
Mitogen-activated protein kinase kinase kinase 9 (Homo sapiens), sequence (P80192 whole entry, looked up, canonical isoform): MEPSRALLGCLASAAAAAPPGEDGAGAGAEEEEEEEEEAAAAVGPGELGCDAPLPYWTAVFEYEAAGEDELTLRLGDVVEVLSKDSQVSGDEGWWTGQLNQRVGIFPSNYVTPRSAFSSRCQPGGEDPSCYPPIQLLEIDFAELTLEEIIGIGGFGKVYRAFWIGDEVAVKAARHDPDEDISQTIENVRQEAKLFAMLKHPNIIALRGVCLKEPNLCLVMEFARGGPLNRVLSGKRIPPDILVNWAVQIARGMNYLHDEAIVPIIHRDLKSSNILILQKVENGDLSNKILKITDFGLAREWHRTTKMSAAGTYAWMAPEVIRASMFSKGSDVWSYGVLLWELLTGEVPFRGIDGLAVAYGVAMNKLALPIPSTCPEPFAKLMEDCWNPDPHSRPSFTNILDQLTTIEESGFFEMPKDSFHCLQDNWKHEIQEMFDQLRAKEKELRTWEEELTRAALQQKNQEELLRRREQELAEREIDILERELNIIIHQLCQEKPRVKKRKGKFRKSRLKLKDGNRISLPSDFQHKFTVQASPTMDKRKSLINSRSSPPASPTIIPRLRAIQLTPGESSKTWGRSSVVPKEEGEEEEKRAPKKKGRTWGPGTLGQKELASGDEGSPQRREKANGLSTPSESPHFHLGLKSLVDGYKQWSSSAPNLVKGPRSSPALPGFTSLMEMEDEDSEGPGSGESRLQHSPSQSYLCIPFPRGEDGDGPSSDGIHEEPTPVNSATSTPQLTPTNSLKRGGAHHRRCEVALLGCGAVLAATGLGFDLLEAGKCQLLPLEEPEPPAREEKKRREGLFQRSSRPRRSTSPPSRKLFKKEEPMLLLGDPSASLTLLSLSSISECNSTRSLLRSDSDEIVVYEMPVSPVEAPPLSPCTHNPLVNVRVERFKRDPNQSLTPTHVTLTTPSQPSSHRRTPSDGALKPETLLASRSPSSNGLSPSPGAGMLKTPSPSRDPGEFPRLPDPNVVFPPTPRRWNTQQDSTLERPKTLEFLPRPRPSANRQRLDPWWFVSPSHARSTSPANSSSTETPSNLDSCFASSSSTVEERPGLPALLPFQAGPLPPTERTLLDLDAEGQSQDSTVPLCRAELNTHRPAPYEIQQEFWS
Casein kinase I isoform alpha (Homo sapiens), sequence (P48729 2-337 limits assumed): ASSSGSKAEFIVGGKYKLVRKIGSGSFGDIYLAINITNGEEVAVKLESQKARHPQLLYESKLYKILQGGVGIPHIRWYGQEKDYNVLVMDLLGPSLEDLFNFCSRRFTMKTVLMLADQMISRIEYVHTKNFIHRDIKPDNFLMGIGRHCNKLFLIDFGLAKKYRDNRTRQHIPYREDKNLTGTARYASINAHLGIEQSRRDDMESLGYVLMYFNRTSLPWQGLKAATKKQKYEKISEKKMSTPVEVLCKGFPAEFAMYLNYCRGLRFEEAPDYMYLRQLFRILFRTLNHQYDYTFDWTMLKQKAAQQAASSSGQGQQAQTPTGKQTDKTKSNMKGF
Cyclin-dependent kinase 15 (Homo sapiens), sequence (Q96Q40 whole entry): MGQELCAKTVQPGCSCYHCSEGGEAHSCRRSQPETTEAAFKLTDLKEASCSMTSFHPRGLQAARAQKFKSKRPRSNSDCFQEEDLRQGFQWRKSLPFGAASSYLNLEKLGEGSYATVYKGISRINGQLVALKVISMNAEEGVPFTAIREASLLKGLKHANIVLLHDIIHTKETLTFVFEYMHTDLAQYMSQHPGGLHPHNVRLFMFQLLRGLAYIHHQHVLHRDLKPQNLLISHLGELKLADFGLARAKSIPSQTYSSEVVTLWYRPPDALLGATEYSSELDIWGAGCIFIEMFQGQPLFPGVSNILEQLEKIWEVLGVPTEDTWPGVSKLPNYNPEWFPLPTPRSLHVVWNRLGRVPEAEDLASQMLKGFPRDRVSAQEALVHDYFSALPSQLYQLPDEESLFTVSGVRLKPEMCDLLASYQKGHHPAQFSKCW
Sigma non-opioid intracellular receptor 1, sequence (Q99720 whole entry): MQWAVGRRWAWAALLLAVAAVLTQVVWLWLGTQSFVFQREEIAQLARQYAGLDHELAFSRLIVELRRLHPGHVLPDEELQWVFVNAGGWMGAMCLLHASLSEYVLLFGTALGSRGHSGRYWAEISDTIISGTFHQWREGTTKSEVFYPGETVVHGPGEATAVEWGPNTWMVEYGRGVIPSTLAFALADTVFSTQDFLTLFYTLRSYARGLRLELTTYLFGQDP

Q: Which residual activity [1] does the source give for O=C(NC[C@@H]1[C@H]2CN(C(=O)OCc3cc(C(F)(F)F)cc(C(F)(F)F)c3)C[C@@H]12)c1ccc2[nH]nnc2c1 [BI 2545] here?
A: Its residual activity is 90%.

Q: And the residual activity [2]?
A: The residual activity was 100%.

Q: And the residual activity [3]?
A: The residual activity was 100%.

Q: And the residual activity [4]?
A: Its residual activity is 93%.

Q: And the residual activity [5]?
A: The residual activity was 45%.

Q: What about the residual activity [6] of the same compound?
A: Its residual activity is 100%.

Q: And the residual activity [7]?
A: Its residual activity is 100%.

Q: What about the residual activity [8] of the same compound?
A: Its residual activity is 100%.

Q: What about the residual activity [9] of the same compound?
A: Its residual activity is 95%.

Q: And the residual activity [10]?
A: Its residual activity is 84%.

Q: What about the residual activity [11] of the same compound?
A: Its residual activity is 83%.

Q: And the residual activity [12]?
A: The residual activity was 100%.

Q: What about the residual activity [13] of the same compound?
A: Its residual activity is 97%.

Q: What about the residual activity [14] of the same compound?
A: Its residual activity is 100%.

Q: What about the residual activity [15] of the same compound?
A: The residual activity was 100%.

Q: And the residual activity [16]?
A: The residual activity was 100%.

Q: What about the residual activity [17] of the same compound?
A: Its residual activity is 71%.

Q: What about the residual activity [18] of the same compound?
A: Its residual activity is 87%.

Q: And the inhibition [19]?
A: The inhibition was 51.2%.

Q: And the residual activity [20]?
A: Its residual activity is 94%.

Q: What about the residual activity [21] of the same compound?
A: The residual activity was 75%.

Q: What about the residual activity [22] of the same compound?
A: Its residual activity is 100%.

Q: What about the residual activity [23] of the same compound?
A: Its residual activity is 61%.

Q: What about the residual activity [24] of the same compound?
A: The residual activity was 86%.

Q: What about the residual activity [25] of the same compound?
A: Its residual activity is 13%.

Q: And the residual activity [26]?
A: Its residual activity is 88%.

Q: What about the residual activity [27] of the same compound?
A: The residual activity was 75%.

Q: What about the residual activity [28] of the same compound?
A: Its residual activity is 83%.

Q: What about the residual activity [29] of the same compound?
A: The residual activity was 100%.

Q: What about the residual activity [30] of the same compound?
A: The residual activity was 86%.

Q: And the residual activity [31]?
A: The residual activity was 100%.

Q: And the residual activity [32]?
A: The residual activity was 88%.

Q: And the residual activity [33]?
A: The residual activity was 100%.

Q: And the residual activity [34]?
A: Its residual activity is 77%.

Q: And the residual activity [35]?
A: Its residual activity is 99%.

Q: And the residual activity [36]?
A: Its residual activity is 86%.

Q: And the inhibition [37]?
A: The inhibition was 28.9%.

Q: What about the residual activity [38] of the same compound?
A: The residual activity was 100%.

Q: And the residual activity [39]?
A: Its residual activity is 95%.

Q: What about the residual activity [40] of the same compound?
A: Its residual activity is 100%.

Q: What about the residual activity [41] of the same compound?
A: The residual activity was 95%.

Q: And the residual activity [42]?
A: Its residual activity is 65%.

Q: And the residual activity [43]?
A: Its residual activity is 82%.

Q: What about the residual activity [44] of the same compound?
A: The residual activity was 93%.

Q: For Cc1nccc(COC(=O)N2C[C@@H]3[C@@H](CNC(=O)c4ccc5[nH]nnc5c4)[C@@H]3C2)n1 [BI 3017], which residual activity [1] is on record?
A: Its residual activity is 84%.

Q: What about the residual activity [2] of the same compound?
A: Its residual activity is 87%.

Q: What about the residual activity [3] of the same compound?
A: The residual activity was 87%.

Q: And the residual activity [4]?
A: Its residual activity is 100%.

Q: And the residual activity [5]?
A: Its residual activity is 70%.

Q: What about the residual activity [6] of the same compound?
A: Its residual activity is 98%.

Q: And the residual activity [7]?
A: Its residual activity is 100%.

Q: And the residual activity [8]?
A: The residual activity was 95%.

Q: What about the residual activity [9] of the same compound?
A: Its residual activity is 99%.

Q: And the residual activity [10]?
A: The residual activity was 100%.

Q: What about the residual activity [11] of the same compound?
A: Its residual activity is 96%.

Q: And the residual activity [12]?
A: The residual activity was 74%.

Q: And the residual activity [13]?
A: The residual activity was 78%.

Q: And the residual activity [14]?
A: Its residual activity is 86%.

Q: And the residual activity [15]?
A: Its residual activity is 89%.

Q: What about the residual activity [16] of the same compound?
A: Its residual activity is 79%.

Q: And the residual activity [17]?
A: Its residual activity is 85%.

Q: And the residual activity [18]?
A: The residual activity was 97%.

Q: And the inhibition [19]?
A: The inhibition was 3.21%.

Q: And the residual activity [20]?
A: Its residual activity is 85%.

Q: And the residual activity [21]?
A: Its residual activity is 100%.

Q: And the residual activity [22]?
A: The residual activity was 100%.

Q: What about the residual activity [23] of the same compound?
A: The residual activity was 90%.

Q: What about the residual activity [24] of the same compound?
A: Its residual activity is 100%.

Q: And the residual activity [25]?
A: Its residual activity is 95%.

Q: What about the residual activity [26] of the same compound?
A: The residual activity was 81%.

Q: What about the residual activity [27] of the same compound?
A: Its residual activity is 100%.

Q: And the residual activity [28]?
A: The residual activity was 92%.

Q: And the residual activity [29]?
A: Its residual activity is 100%.

Q: What about the residual activity [30] of the same compound?
A: The residual activity was 100%.

Q: What about the residual activity [31] of the same compound?
A: Its residual activity is 94%.

Q: What about the residual activity [32] of the same compound?
A: The residual activity was 100%.

Q: What about the residual activity [33] of the same compound?
A: The residual activity was 95%.

Q: What about the residual activity [34] of the same compound?
A: The residual activity was 93%.

Q: And the residual activity [35]?
A: Its residual activity is 41%.

Q: What about the residual activity [36] of the same compound?
A: The residual activity was 99%.

Q: What about the inhibition [37] of the same compound?
A: Its inhibition is 26.1%.

Q: What about the residual activity [38] of the same compound?
A: Its residual activity is 95%.

Q: What about the residual activity [39] of the same compound?
A: The residual activity was 95%.

Q: And the residual activity [40]?
A: The residual activity was 100%.

Q: What about the residual activity [41] of the same compound?
A: The residual activity was 100%.

Q: What about the residual activity [42] of the same compound?
A: The residual activity was 97%.

Q: And the residual activity [43]?
A: The residual activity was 100%.

Q: And the residual activity [44]?
A: The residual activity was 95%.
